How the values were obtained:
AtAFB5 [1] = target: T1, AtAFB5 (Arabidopsis thaliana, UniProt Q9LTX2); assay: biochemical; assay type: binding; conditions: averaged equilibrium dissociation constant, SPR single cycle kinetics; read-out: Ave KD
T1 construct: His10 (N, cleaved yes); eGFP (N, cleaved yes); FLAG (N, cleaved yes); made in house; host or cells: baculovirus; Trichoplusia ni Hi5 cells (virus generated in Sf9)
Description: (§1) Auxin binding assays using surface plasmon resonance (SPR) were performed on a Biacore 2000 as described previously.[3], [18], [23] Protein was stored on ice and protein concentrations were assayed by A280 nm measurement (nanodrop, Thermo Scientific). Briefly, AtAux/IAA7 degron peptide was immobilized on streptavidin‐coated SPR chips, and binding was measured in the presence of IAA or auxin analogue by recruitment of the TIR1/AFB protein from solution as the co‐receptor complex formed on the chip. Kinetic analyses were performed by single cycle kinetics on a Biacore T200 (Cytiva Life Sciences), titrating compounds against a fixed concentration of TIR1 before injection. The degron peptide density on the chips was controlled so that R max < 300 Response UNits (RU).

AtTIR1 [2] = target: T2, AtTIR1 (Arabidopsis thaliana, UniProt Q570C0); assay: biochemical; assay type: binding; conditions: for Kd: averaged equilibrium dissociation constant, SPR single cycle kinetics, read-out: Ave KD
T2 construct: His10 (N, cleaved yes); eGFP (N, cleaved yes); FLAG (N, cleaved yes); made in house; host or cells: baculovirus; Trichoplusia ni Hi5 cells (virus generated in Sf9)
T2 sequence (Q570C0 whole entry, other chains not shown): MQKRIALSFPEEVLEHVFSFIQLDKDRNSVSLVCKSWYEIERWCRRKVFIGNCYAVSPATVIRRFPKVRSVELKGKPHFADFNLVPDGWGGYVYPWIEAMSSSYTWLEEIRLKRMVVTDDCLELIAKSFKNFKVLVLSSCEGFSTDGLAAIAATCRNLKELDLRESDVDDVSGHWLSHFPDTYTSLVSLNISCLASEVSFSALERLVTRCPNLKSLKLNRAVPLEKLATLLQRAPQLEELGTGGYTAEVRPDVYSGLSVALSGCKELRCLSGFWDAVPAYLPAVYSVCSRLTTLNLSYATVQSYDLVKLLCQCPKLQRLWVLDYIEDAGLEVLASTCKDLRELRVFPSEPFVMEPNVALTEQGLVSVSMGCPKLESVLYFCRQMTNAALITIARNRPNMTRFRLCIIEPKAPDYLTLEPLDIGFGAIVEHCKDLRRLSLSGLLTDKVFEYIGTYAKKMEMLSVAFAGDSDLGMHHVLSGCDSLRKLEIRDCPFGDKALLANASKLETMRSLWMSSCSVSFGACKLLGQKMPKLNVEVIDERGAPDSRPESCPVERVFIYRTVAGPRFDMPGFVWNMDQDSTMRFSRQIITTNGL
T2 sequence (Q39255 whole entry partner, other chains not shown): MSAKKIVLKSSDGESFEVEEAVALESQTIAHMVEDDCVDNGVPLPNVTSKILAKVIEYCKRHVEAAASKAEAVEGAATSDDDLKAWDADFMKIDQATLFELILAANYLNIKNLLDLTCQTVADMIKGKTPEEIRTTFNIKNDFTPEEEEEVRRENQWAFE
Description: as §1

AtAFB2 [3] = target: T3, AtAFB2 (Arabidopsis thaliana, UniProt Q9LW29); assay: SPR single cycle kinetics, AtAFB2; assay type: binding; conditions: averaged equilibrium dissociation constant, SPR single cycle kinetics; read-out: Ave KD
T3 construct: His10 (N, cleaved yes); eGFP (N, cleaved yes); FLAG (N, cleaved yes); made in house; host or cells: baculovirus; Trichoplusia ni Hi5 cells (virus generated in Sf9)
T3 sequence (Q9LW29 whole entry, other chains not shown): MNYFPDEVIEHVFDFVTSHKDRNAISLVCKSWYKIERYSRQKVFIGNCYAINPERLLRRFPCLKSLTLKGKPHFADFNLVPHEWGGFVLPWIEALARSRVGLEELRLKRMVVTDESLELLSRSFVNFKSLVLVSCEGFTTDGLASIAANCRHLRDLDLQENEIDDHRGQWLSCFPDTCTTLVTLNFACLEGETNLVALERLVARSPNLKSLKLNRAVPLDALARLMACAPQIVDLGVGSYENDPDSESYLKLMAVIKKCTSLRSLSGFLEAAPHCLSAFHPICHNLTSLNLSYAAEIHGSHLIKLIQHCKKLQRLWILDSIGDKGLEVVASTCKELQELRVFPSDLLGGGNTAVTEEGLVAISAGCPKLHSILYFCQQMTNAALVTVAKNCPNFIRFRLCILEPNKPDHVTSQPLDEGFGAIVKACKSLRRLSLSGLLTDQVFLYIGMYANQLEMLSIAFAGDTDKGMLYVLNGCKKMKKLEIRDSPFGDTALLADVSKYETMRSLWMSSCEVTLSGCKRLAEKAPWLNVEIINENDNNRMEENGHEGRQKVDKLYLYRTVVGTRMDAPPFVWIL
T3 sequence (Q39255 whole entry partner, other chains not shown): as the sequence (Q39255 whole entry partner, other chains not shown) above
Description: as §1

AtTIR1 [4] = target: T2, AtTIR1; assay: SPR relative binding (co-receptor complex formation with Aux/IAA7 degron), AtTIR1; conditions: 50 μM compound, compared to IAA
Description: as §1

AtAFB2 [5] = target: T3, AtAFB2; assay: SPR relative binding (co-receptor complex formation with Aux/IAA7 degron), AtAFB2; conditions: 50 μM compound, compared to IAA
Description: as §1

AtAFB5 [6] = target: T1, AtAFB5; assay: SPR relative binding (co-receptor complex formation with Aux/IAA7 degron), AtAFB5; conditions: 50 μM compound, compared to IAA
Description: as §1

[7] = system: Arabidopsis thaliana wild type (WT) Col‐0; assay: Foliar efficacy bioassay, wild type; assay type: in vivo; conditions: foliar application; for GR50 (DW % of NT): dry weight at 14 DAT
Description: (§2) Bioassays were carried out with the model species Arabidopsis thaliana. The wild type (WT) Col‐0 line was compared to an afb5‐1 mutant line in a Col‐0 background containing a missense mutation of R609K.[11] A. thaliana seeds were sown on Metro‐mix 360 potting mix (Sungro Horticulture) supplemented with vermiculite and stratified for 3 days at 4 °C in the dark. Flats were moved to a growth chamber (as above) and a plastic lid was placed on the flat. On germination, the lid was removed. After 2 weeks in the growth chamber, seedlings were transplanted into 3‐in. pots with Metro‐mix 360 potting mix and moved to a greenhouse. The greenhouse was maintained at a day/night temperature of 23/22 °C and supplemented with light to complete a 16 h photoperiod. Plants were allowed to recover from transplanting for 1 week prior to applications. A. thaliana seedlings were sprayed with test compounds at five rates with four replications. Tests included nontreated and solvent check controls. Individual compound doses varied and were based on plate test data or anecdotal potency. Compounds were formulated as technical material and were initially dissolved in 1 part 97:3 (v/v) acetone: dimethylsufoxide (DMSO) followed by 5 parts 1.5% (v/v) Agridex crop oil concentrate in distilled water to give a final concentration of 1.25% (v/v) Agridex. Formulated compounds were sprayed at a volume of 187 L ha^−1 at a spray height of 43 cm above the plants with an overhead Mandel track sprayer set with 8002 E Tee jet nozzle. Plants were treated at rosette stage just prior to or at initiation of bolting. After spray application, plants were allowed to dry then moved back to the greenhouse. Plants were grown in the greenhouse (same conditions as above) for 2 weeks until harvest. Visual injury/growth reduction observations were made at 7 and 14 days after treatment (DAT) and scored where 0% = no growth reduction and 100% = complete growth reduction or plant death. At 14 DAT the plants were harvested and dried to collect dry weight (DW) biomass.
(§3) The data collected in the foliar application of compounds generated a measure of sensitivity or dose response. The data was analyzed by regression in JMP 10.0 and fit to a nonlinear exponential three parameter fit model:
(§4) where a is the asymptote, b is the scale and c is the rate of growth. The model was used to determine the herbicidal dose that caused 50% reduction in growth (GR50). GR50 values were compared between mutant and WT to give an indication of fold resistance over WT (Table 3). A log‐logistic model[24] was also used to fit the data and gave similar GR50 values with greater standard errors without changing the pattern of responsiveness.

[8] = system: Arabidopsis thaliana afb5‐1 mutant line; assay type: in vivo; conditions: for GR50 (DW % of NT) / GR50 (visual injury): afb5‐1, foliar application; for GR50 (DW % of NT): dry weight at 14 DAT; for Resistance ratio (afb5‐1 vs WT), DW: ratio of dry weight GR50 values; for Resistance ratio (afb5‐1 vs WT), DW / Resistance ratio (afb5‐1 vs WT), visual injury: foliar application; for Resistance ratio (afb5‐1 vs WT), visual injury: ratio of visual injury GR50 values
Description: as §2, §3, §4

[9] = system: Arabidopsis thaliana afb5‐1 seedlings; assay: Root growth inhibition bioassay, afb5‐1 mutant; assay type: in vivo; conditions: afb5‐1 vs WT dose-response, 8 days
Description: A. thaliana seed was surface sterilized in 10 mL of 50% bleach and two drops of Tween‐20 for 12 min and rinsed six times with sterile water. Sterile growth media consisted of half‐strength Murashige and Skoog salts supplemented with 0.4% agar and 0.8% sucrose. In a laminar flow hood, 8 mL of liquid media was transferred to sterile test‐tubes placed in a heat block to maintain media in a liquid state. Compounds were previously diluted in 50/50 DMSO/water to a known molar concentration. A 50‐μL aliquot of diluted compound was added to each tube to give a specified final concentration, normally 10, 1, 0.1, 0.01 or 0.001 μM. A single tube was treated with solvent only as a control. Test compounds were mixed into the media by pipetting up and down three times, then 6 mL of media with test compound was added to one well in a six‐well plate, working from low‐to‐high concentration, and allowed to solidify in the laminar flow hood. Approximately 15 sterilized seeds were placed on the solidified surface and the remaining 2 mL of liquid media was added to cover and disperse seeds. Plates were sealed with paraffin and moved to a Conviron growth chamber set to 60% humidity, 25 °C and light intensity 100 μE m^2 s^−1 with a 16 h photoperiod. After 8 days primary root measurements of five random plants were taken by removing plants from media and measuring with a ruler. Treatments were compared against the solvent control to determine percentage root growth inhibition. Each experiment was run twice and averages were combined for analysis.

T1 sequence (Q9LTX2 whole entry, other chains not shown): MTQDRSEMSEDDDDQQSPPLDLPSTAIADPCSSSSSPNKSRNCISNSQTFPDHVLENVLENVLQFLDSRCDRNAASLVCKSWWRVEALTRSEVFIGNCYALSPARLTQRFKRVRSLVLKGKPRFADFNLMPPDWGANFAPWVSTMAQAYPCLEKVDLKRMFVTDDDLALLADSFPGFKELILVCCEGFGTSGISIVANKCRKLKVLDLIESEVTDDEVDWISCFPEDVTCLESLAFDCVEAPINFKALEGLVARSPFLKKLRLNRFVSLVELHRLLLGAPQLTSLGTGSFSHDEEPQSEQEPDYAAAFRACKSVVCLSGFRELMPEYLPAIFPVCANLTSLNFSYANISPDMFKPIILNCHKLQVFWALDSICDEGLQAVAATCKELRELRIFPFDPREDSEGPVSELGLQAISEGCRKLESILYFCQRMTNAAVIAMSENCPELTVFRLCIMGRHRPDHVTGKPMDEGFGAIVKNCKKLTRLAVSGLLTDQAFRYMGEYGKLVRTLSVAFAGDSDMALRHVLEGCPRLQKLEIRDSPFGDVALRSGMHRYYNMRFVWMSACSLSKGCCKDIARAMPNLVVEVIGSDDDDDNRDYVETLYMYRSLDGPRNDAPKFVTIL
T1 sequence (Q39255 whole entry partner, other chains not shown): as the sequence (Q39255 whole entry partner, other chains not shown) above

Compound	Kd (AtAFB5 [1]) [µM]	Kd (AtTIR1 [2]) [µM]	Fold higher affinity for TIR1 (AtTIR1 [2]; from KD values, TIR1 versus other receptors) [fold]	Kd (AtAFB2 [3]) [µM]	Relative binding (in words) (AtTIR1 [4])	Relative binding (in words) (AtAFB2 [5])	Relative binding (in words) (AtAFB5 [6])	GR50 (DW % of NT) [7] [g ai ha^−1]	GR50 (visual injury) [7] [g ai ha^−1]	GR50 (DW % of NT) [8] [g ai ha^−1]	GR50 (visual injury) [8] [g ai ha^−1]	Resistance ratio (afb5‐1 vs WT), DW [8]	Resistance ratio (afb5‐1 vs WT), visual injury [8]	Resistance of afb5‐1 in root growth inhibition (in words) [9]
O=C(O)Cc1c[nH]c2ccccc12 [IAA, indole‐3‐acetic acid]	33	7.9	4	12.6	–	–	–	–	–	–	–	–	–	–
O=C(O)COc1nc(Cl)c(Cl)cc1Cl [Triclopyr]	–	–	–	–	lower binding than IAA	lower binding than IAA	lower binding than IAA	4.7	31.8	18.4	41.8	3.9	1.3	–
Nc1cc(Cl)nc(C(=O)O)c1Cl [Aminopyralid]	–	–	–	–	relatively low binding	relatively low binding	relatively low binding	3.4	40.1	68.7	–	20.2	–	considerable resistance
Nc1c(F)c(-c2ccc(Cl)cc2)nc(C(=O)O)c1Cl [DAS534]	–	–	–	–	–	–	strong bias for binding to AtAFB5	–	0.4	1.2	4.3	–	10.8	–
O=C(O)c1nc(Cl)ccc1Cl [Clopyralid]	–	–	–	–	relatively low binding	relatively low binding	relatively low binding	497	2698	3999	4259	–	1.6	considerable resistance
COc1c(Cl)ccc(Cl)c1C(=O)O [Dicamba]	–	–	–	–	low binding	low binding	low binding	16.5	169	60.8	290	3.7	1.7	No resistance
Nc1nc(C2CC2)nc(C(=O)O)c1Cl [Aminocyclopyrachlor]	–	–	–	–	–	–	–	4.4	7	8.3	36.8	1.9	5.3	considerable resistance
Nc1c(Cl)c(F)nc(OCC(=O)O)c1Cl [Fluroxypyr]	95	18	–	45	lower binding than IAA	lower binding than IAA	lower binding than IAA	35.7	234	84.1	310	2.4	1.3	–
O=C(O)Cc1cccc2ccccc12 [1‐NAA, 1‐napthaleneacetic acid]	–	–	–	–	–	–	–	–	–	–	–	–	–	No resistance
COc1c(Cl)ccc(-c2nc(C(=O)O)c(Cl)c(N)c2F)c1F [Florpyrauxifen]	2.7	62	–	105	–	–	–	0.1	0.7	1	5.2	10	7.4	considerable resistance
CC(Oc1ccc(Cl)cc1Cl)C(=O)O (stereo not drawn) [dichlorprop]	–	–	–	–	lower binding	lower binding	lower binding	–	–	–	–	–	–	–
Cc1cc(Cl)ccc1OCC(=O)O [MCPA, 2‐methyl‐4‐chlorophenoxyacetic acid]	–	–	–	–	lower binding	lower binding	lower binding	–	–	–	–	–	–	–
Cc1cc(Cl)ccc1OC(C)C(=O)O (stereo not drawn) [mecoprop]	–	–	–	–	lower binding	lower binding	lower binding	–	–	–	–	–	–	–

— PMC10952535, “The differential binding and biological efficacy of auxin herbicides” (Pest Management Science, 2022)
